This passage reports IC50, solubility and inhibition results from US8686022B2, “7-(piperazine-1-ymethyl)-1H-indole-2-carboxylic acid (phenyl)-amide derivatives and allied compounds as p38 MAP kinase inhibitors for the treatment of respiratory diseases” (Boehringer Ingelheim International GmbH, priority 2008, dated 2014).

The target of one data set is cytochrome P450 2C9 (Homo sapiens, UniProt P11712). Nature of the data set: Determining the cyp2C9 activity (O-demethylation of [O-methyl-14C]-naproxen). The class given is in vitro ADME. The note with it: human recombinant cytochrome P450 2C9; 37° C.; <0.4 μM when inhibition >50% at lowest concentration; read-out: CYP 2C9 IC50. The method, then: Determining the cyp2C9 Activity:
The assay is carried out in a robot system with 96-well plates. The final incubation volume is 200 μl of TRIS-Puffer (0.1 M), magnesium chloride (5 mM), recombinant protein (40 pmol/ml), ^14C-labelled naproxen (80 μM) and the test compound in one of 4 concentrations (50 μM, 10 μM, 2 μM and 0.4 μM) as a duplicate in each case. After a short preincubation period the reactions are started by the addition of the cofactor (NADPH, 1 mM) and ended after 15 min by the addition of 50 μl of a 10% aqueous trichloroacetic acid solution. One aliquot of the incubate is transferred onto a 96-well solid phase extraction plate and extracted. The ^14C-formaldehyde formed during the reaction is not retained on the solid phase extraction plate and is thus separated from the unmetabolised substrate by washing the solid phase extraction plate with water. One aliquot of the eluate is transferred into a well plate suitable for liquid scintillation. […] The IC50 is determined by the least squares method using the following formula: control activity=(100% control activity/(1+(I/IC50)S))−B where I=Inhibitor concentration S=Pitch B=Background activity
When the inhibition of the reaction is >50% even at the lowest concentration of the test compound, the IC50 is given as <0.4 μM.

Data set [1] is described as follows: Determining the solubility (saturated solution in McIlvaine buffer pH 7.4, UV spectroscopy). The class given is physicochemical. Conditions: pH 7.4, aqueous buffer, thermodynamic from solid, shaken 2 hours, 0.75 mg solid in 0.75 ml. The method, then: Determining the Solubility:
Saturated solutions are prepared in suitable well dishes by adding 0.75 ml of a McIlvaine buffer (pH 7.4) to the well in question containing 0.75 mg of solid of an active substance. The wells are shaken for 2 hours and then filtration is carried out through a suitable filter membrane (typically polytetrafluoroethylene with a pore size of 0.45 μm). Filter absorption is prevented by discarding the first few drops of filtrate. The amount of active substance dissolved is determined by UV spectroscopy.

The target of the next data set is p38 MAP-kinase (Homo sapiens, UniProt Q16539). Nature of the data set: p38 MAP-kinase enzymatic assay (phosphorylation of GST-tagged ATF2, chemoluminescence). The class given is biochemical. Conditions: inhibitor concentration 1 μM; activated p38 MAP-kinase 1 nM; ATP 100 μM; read-out: p38 (% Inh @ 1 μM). The method, then: In this, the amount of a substrate phosphorylated by the kinase is quantified. The test is carried out as follows:
The kinase reaction is carried out in the presence of HEPES (20 mM, pH 7), MgCl2 (10 mM), DTT (1 mM) and TWEEN20 (0.01%). First, dimethylsulphoxide or inhibitor (final concentration: 1 μM) dissolved in dimethylsulphoxide are placed in a reaction vessel. Then the activated p38 MAP-kinase (final concentration 1 nM) is added and the mixture is incubated for 4 h at ambient temperature. Then a mixture of substrate (GST-tagged ATF2) and ATP is added and everything is incubated together for a further hour (final concentration ATP: 100 μM; final concentration ATF2: 10 nM).
The concentration of phosphorylated ATF2 is quantified by chemoluminescence-induced light emission. For this, a glutathione donor bead (final concentration: 5 μg/ml) which binds to the gluthathione on the ATF2 and phospho-ATF2 antibodies are added to the reaction mixture (final concentration: 3 nM; this binds the phosphate group added by the kinase reaction) to which a Protein A Acceptor Bead (final concentration: 5 μg/ml) binds. These components are dissolved in a buffer which contains 20 mM HEPES pH 7.0, 200 mM NaCL, 80 mM EDTA as well as 0.3% BSA. This reaction mixture is incubated in the dark for 1 hour at ambient temperature. When these beads come physically close, visible light is emitted which is measured in a photometer at 520-620 nm.
To determine the inhibitory activity of the compounds according to the invention a calculation is made to determine the percentage by which the kinase activity is inhibited at a fixed inhibitor concentration of 1 μM. The maximum activity is determined by non-inhibited kinase. The minimum activity or nonspecific background activity is determined using a reaction mixture without kinase.
Table 2 summarises the degree of inhibition of the enzyme p38 MAP-kinase—as described hereinbefore—mediated by the compounds according to the invention detailed in the section “Preparation of the final compounds”.

Converted amounts (≈) assume the structure as drawn.

Sequence of p38 MAP-kinase (Q16539 whole entry): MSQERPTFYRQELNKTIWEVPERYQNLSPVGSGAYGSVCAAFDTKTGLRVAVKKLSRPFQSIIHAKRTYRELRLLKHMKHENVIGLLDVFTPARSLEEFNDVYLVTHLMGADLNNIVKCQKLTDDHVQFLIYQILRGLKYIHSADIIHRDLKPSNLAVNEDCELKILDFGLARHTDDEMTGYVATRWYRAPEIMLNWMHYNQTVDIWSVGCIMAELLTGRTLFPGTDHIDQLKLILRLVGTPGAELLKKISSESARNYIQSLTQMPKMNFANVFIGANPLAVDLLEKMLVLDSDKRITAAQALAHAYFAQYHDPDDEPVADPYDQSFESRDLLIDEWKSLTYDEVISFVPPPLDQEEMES
Sequence of cytochrome P450 2C9 (P11712 whole entry): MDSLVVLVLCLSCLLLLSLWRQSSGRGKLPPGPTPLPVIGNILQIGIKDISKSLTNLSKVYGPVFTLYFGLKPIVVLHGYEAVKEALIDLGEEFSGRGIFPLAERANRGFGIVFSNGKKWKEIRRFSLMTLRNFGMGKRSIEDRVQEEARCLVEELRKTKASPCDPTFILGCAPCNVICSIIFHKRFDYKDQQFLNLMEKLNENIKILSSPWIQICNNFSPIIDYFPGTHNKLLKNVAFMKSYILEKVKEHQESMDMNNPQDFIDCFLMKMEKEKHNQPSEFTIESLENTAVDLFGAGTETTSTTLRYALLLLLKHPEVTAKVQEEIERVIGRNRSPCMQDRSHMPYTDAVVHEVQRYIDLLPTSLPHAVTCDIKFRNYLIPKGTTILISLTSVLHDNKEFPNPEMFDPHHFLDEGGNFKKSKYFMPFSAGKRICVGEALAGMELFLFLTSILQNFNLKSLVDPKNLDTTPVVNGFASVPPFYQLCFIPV

On to `COc1c(NC(=O)c2cc3cccc(CN4CCN(C(=O)[C@@H]5C[C@@H](O)CN5C)CC4)c3n2C)cc(C(C)(C)C)cc1NS(C)(=O)=O` [1(8), 7-[4-((2S,4R)-4-hydroxy-1-methyl-pyrrolidine-2-carbonyl)-piperazin-1-ylmethyl]-1-methyl-1H-indole-2-carboxylic acid(5-tert-butyl-3-methanesulphonylamino-2-methoxy-phenyl)-amide], for which, on cytochrome P450 2C9, the IC50 (commonly the concentration that inhibits the measured activity by half) amounted to 1.02 µM. The amount in solution in data set [1] (solubility at 2 h) came to 0.084 mg/mL (≈ 128 µM). For the same compound, the inhibition at 1 µM on p38 MAP-kinase is 98.9%.
Take `COc1c(NC(=O)c2cc3cccc(CN4CCN(C(=O)[C@H]5CCN(C)C5)CC4)c3n2C)cc(C(C)(C)C)cc1NS(C)(=O)=O` [Example 5, (S)-1-methyl-7-[4-(1-methyl-pyrrolidine-3-carbonyl)-piperazin-1-ylmethyl]-1H-indole-2-carboxylic acid (5-tert-butyl-3-methanesulphonylamino-2-methoxy-phenyl)-amide]: the half-maximal inhibitory concentration (IC50) at cytochrome P450 2C9 is 1.15 µM. The solubility – broadly, how much of the substance goes into solution per volume – at 2 h in data set [1] came to 0.62 mg/mL (≈ 971 µM). In addition, the inhibition at 1 µM at p38 MAP-kinase was determined as 98.6%.
The like results for `COc1c(NC(=O)c2cc3cccc(CC4CCCN(C(=O)[C@@H]5CCCN5C)CC4)c3n2C)cc(C(C)(C)C)cc1NS(C)(=O)=O` (stereo partly drawn) [1(18), 1-methyl-7-[1-((2S)-1-methyl-pyrrolidine-2-carbonyl)-azepan-4-ylmethyl]-1H-indole-2-carboxylic acid-(5-tert-butyl-3-methanesulphonylamino-2-methoxy-phenyl)-amide] were, in that order, 0.84 µM, 0.08 mg/mL (≈ 123 µM) and 98%.
Consider `COc1c(NC(=O)c2cc3cccc(CN4CCCN(C(=O)C5CCN(C)CC5)CC4)c3n2C)cc(C(C)(C)C)cc1NS(C)(=O)=O` [8(1), 1-methyl-7-[4-(1-methyl-piperidine-4-carbonyl)-[1,4]diazepan-1-ylmethyl]-1H-indole-2-carboxylic acid-(5-tert-butyl-3-methanesulphonylamino-2-methoxy-phenyl)-amide], for which the half-maximal inhibitory concentration (IC50) on cytochrome P450 2C9 worked out at 6.48 µM. Also, in data set [1], the solubility at 2 h came to 0.12 mg/mL (≈ 180 µM). For the same compound, on p38 MAP-kinase, the inhibition at 1 µM was found to be 98.1%.
The like results for `COc1c(NC(=O)c2cc3cccc(CN4CCN(C(=O)[C@H]5C[C@H](O)CN5C)CC4)c3n2C)cc(C(C)(C)C)cc1NS(C)(=O)=O` [1(11), 7-[4-((2R,4S)-4-hydroxy-1-methyl-pyrrolidine-2-carbonyl)-piperazin-1-ylmethyl]-1-methyl-1H-indole-2-carboxylic acid(5-tert-butyl-3-methanesulphonylamino-2-methoxy-phenyl)-amide] were, in that order, 0.41 µM, 0.045 mg/mL (≈ 68.7 µM) and 99.2%.
On to `COc1c(NC(=O)c2cc3cccc(CN4CCN(C(=O)[C@@H]5C[C@H](O)CN5C)CC4)c3n2C)cc(C(C)(C)C)cc1NS(C)(=O)=O` [1(12), 7-[4-((2S,4S)-4-hydroxy-1-methyl-pyrrolidine-2-carbonyl)-piperazin-1-ylmethyl]-1-methyl-1H-indole-2-carboxylic acid(5-tert-butyl-3-methanesulphonylamino-2-methoxy-phenyl)-amide], for which the IC50 at cytochrome P450 2C9 stood at 1.55 µM. The compound also yielded a solubility at 2 h in data set [1] of 0.14 mg/mL (≈ 214 µM). The inhibition at 1 µM on p38 MAP-kinase was determined as 98.9%.
The matching figures for `COc1c(NC(=O)c2cc3cccc(CN4CCN(C(=O)C5CCN(C)CC5)CC4)c3n2C)cc(C(C)(C)C)cc1NS(C)(=O)=O` [Example 1, 1-methyl-7-[4-(1-methyl-piperidine-4-carbonyl)-piperazin-1-ylmethyl]-1H-indole-2-carboxylic acid(5-tert-butyl-3-methanesulphonylamino-2-methoxy-phenyl)-amide]: 2.42 µM, 0.36 mg/mL (≈ 551 µM) and 98.9%.
In the case of `COc1c(NC(=O)c2cc3cccc(CN4CCN(C(=O)CN5CC[C@@H](N(C)C)C5)CC4)c3n2C)cc(C(C)(C)C)cc1NS(C)(=O)=O` [6(2), (R)-7-{4-[2-(3-dimethylamino-pyrrolidin-1-yl)-acetyl]-piperazin-1-ylmethyl}-1-methyl-1H-indole-2-carboxylic acid-(5-tert-butyl-3-methanesulphonylamino-2-methoxy-phenyl)-amide], at cytochrome P450 2C9, the IC50 amounted to 0.7 µM. In data set [1], this compound registered a solubility at 2 h of more than 1 mg/mL. Also, the inhibition at 1 µM at p38 MAP-kinase was 98.9%.
For the compound `COc1c(C[S+](C)[O-])cc(C(C)(C)C)cc1NC(=O)c1cc2cccc(CN3CCN(C(=O)[C@@H]4CCCN4C)CC3)c2n1C` (stereo partly drawn) [11(6), 1-methyl-7-[4-((2S)-1-methyl-pyrrolidine-2-carbonyl)-piperazin-1-ylmethyl]-1H-indole-2-carboxylic acid-(5-tert-butyl-3-methanesulphinylmethyl-2-methoxy-phenyl)-amide], the IC50 at cytochrome P450 2C9 is 3.18 µM. In data set [1], the solubility at 2 h was determined as 0.68 mg/mL (≈ 1090 µM). Moreover, the inhibition at 1 µM at p38 MAP-kinase came out at 99.6%.
The matching figures for `COc1c(NC(=O)c2cc3cccc(CN4CCN(C(=O)CN5CCC(N(C)C)CC5)CC4)c3n2C)cc(C(C)(C)C)cc1NS(C)(=O)=O` [Example 6, 7-{4-[2-(4-dimethylamino-piperidin-1-yl)-acetyl]-piperazin-1-ylmethyl}-1-methyl-1H-indole-2-carboxylic acid-(5-tert-butyl-3-methanesulphonylamino-2-methoxy-phenyl)-amide]: 3.43 µM, more than 1 mg/mL and 98.6%.
The matching figures for `COc1c(NC(=O)c2cc3cccc(CN4CCN(C(=O)[C@@H]5CCCN5C)CC4)c3n2C)cc(C(C)(C)C)cc1NC(=O)C(C)C` [12(3), (S)-1-methyl-7-[4-(1-methyl-pyrrolidine-2-carbonyl)-piperazin-1-ylmethyl]-1H-indole-2-carboxylic acid-(5-tert-butyl-3-isobutyrylamino-2-methoxy-phenyl)-amide]: 2.15 µM, 0.091 mg/mL (≈ 144 µM) and 97.3%.
The like results for `COc1c(NC(=O)c2cc3cccc(CN4CCN(C(=O)[C@@H]5CCCN5C)CC4)c3n2C)cc(C(C)(C)C)cc1C(=O)N(C)C` [Example 11, (S)-1-methyl-7-[4-(1-methyl-pyrrolidine-2-carbonyl)-piperazin-1-ylmethyl]-1H-indole-2-carboxylic acid-(5-tert-butyl-3-dimethylcarbamoyl-2-methoxy-phenyl)-amide] were, in that order, 5.9 µM, 0.45 mg/mL (≈ 730 µM) and 92%.
On to `COc1c(NC(=O)c2cc3cccc(CN4CCC(C(=O)N5CC[C@H](N(C)C)C5)CC4)c3n2C)cc(C(C)(C)C)cc1NS(C)(=O)=O` [1(23), (S)-7-[4-(3-dimethylamino-pyrrolidine-1-carbonyl)-piperidin-1-ylmethyl]-1-methyl-1H-indole-2-carboxylic acid-(5-tert-butyl-3-methanesulphonylamino-2-methoxy-phenyl)-amide], for which the half-inhibitory concentration (IC50) on cytochrome P450 2C9 was found to be 1.77 µM. This compound came in with a solubility at 2 h in data set [1] of 0.28 mg/mL (≈ 420 µM). Besides, the inhibition at 1 µM at p38 MAP-kinase worked out at 97%.
The like results for `COc1c(NC(=O)c2cc3cccc(CN4CCN(C(=O)[C@H]5CCCN5C)CC4)c3n2C)cc(C(C)(C)C)cc1NS(C)(=O)=O` [1(3), (R)-1-methyl-7-[4-(1-methyl-pyrrolidine-2-carbonyl)-piperazin-1-ylmethyl]-1H-indole-2-carboxylic acid(5-tert-butyl-3-methanesulphonylamino-2-methoxy-phenyl)-amide] were, in that order, 1.04 µM, 0.16 mg/mL (≈ 250 µM) and 99.1%.
